pIC50: −log10 of the molar value. Some results are limits rather than exact numbers.

Chain of USP1 (construct USP1 (I-785, GG670, 671AA)/UAF1 (I-677)-Flag) (O94782 whole entry G670A/G671A): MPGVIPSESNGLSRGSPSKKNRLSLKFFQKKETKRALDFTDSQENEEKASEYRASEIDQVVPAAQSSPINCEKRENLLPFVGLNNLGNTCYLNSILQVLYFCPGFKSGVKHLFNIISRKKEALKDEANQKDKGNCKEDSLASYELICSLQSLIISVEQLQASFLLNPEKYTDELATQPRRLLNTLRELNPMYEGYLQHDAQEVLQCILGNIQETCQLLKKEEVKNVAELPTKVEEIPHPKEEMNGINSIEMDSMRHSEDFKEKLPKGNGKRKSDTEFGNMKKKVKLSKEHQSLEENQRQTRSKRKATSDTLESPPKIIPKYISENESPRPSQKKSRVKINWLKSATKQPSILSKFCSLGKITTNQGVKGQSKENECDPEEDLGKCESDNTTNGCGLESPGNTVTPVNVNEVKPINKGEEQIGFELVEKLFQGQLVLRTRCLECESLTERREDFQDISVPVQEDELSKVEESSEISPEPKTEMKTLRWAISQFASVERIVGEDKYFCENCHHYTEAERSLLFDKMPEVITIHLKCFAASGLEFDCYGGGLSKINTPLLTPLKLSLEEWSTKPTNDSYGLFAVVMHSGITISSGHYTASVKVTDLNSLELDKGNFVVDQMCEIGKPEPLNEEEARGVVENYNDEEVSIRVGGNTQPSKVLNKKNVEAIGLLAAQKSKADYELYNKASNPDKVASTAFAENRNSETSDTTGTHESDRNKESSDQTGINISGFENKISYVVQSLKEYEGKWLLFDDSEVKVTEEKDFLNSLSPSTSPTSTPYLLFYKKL
Chain of USP1 (construct USP1 (I-785, GG670, 671AA)/UAF1 (I-677)-Flag) (Q8TAF3 whole entry partner): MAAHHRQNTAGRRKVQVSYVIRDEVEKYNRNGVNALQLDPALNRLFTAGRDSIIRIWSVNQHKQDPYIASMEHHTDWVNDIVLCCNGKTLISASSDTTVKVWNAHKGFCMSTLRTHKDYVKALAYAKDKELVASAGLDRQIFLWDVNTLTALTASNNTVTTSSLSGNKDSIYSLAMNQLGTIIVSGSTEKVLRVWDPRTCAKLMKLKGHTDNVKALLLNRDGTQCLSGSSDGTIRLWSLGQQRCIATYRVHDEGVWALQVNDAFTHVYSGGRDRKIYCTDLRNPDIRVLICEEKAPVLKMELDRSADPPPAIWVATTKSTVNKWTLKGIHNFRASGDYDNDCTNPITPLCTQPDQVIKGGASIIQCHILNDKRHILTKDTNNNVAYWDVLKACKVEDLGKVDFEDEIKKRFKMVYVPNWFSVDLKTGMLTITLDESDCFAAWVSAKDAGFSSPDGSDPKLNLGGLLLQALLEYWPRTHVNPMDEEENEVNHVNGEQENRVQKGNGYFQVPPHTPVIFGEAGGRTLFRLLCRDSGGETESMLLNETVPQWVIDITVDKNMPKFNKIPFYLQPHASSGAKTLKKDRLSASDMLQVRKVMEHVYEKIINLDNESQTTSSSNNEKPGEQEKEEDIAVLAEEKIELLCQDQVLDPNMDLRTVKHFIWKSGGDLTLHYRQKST

This test addresses USP1 (construct USP1 (I-785, GG670, 671AA)/UAF1 (I-677)-Flag) (Homo sapiens (Human), UniProt O94782, G670A/G671A). Kind of test: Ubiquitin-Rhodamine 110 assay for USP1 activity. The note with it: USP1/UAF1 25 pM, Ub-Rh110 25 nM, 30 min preincubation. The class given is biochemical. An outline of the steps: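 Ub-Rh110 (25 nM, ≪Km) cleavage read at ex 485/em 535 in Tris pH 8.0, CaCl2, GSH, Prionex, Triton X-100. The screen used 10 µM compound, 100 pM USP1/UAF1 and 45 min at RT.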
Take `COCCn1c(=O)n(Cc2ccc(-c3nc(C(F)(F)F)cn3C)cc2)c2nc(-c3cccnc3C(C)C)ncc21` [Compound I-120, 2-(2-isopropylpyridin-3-yl)-7-(2-methoxyethyl)-9-(4-(1-methyl-4-(trifluoromethyl)-1H-imidazol-2-yl)benzyl)-7,9-dihydro-8H-purin-8-one]: the negative-log IC50 (pIC50) (as a rule, the negative decadic logarithm of the IC50, by convention in mol/L) is > 7.30.

Regarding `CC(C)c1ccccc1-c1ncc2[nH]c(=O)n(Cc3ccc(-n4cc(CCO)nn4)cc3)c2n1` [Compound I-342, 9-(4-(4-(2-hydroxyethyl)-1H-1,2,3-triazol-1-yl)benzyl)-2-(2-isopropylphenyl)-7,9-dihydro-8H-purin-8-one], the negative logarithm of the IC50 (pIC50) was 5.70 to 6.70.

On to `CC(C)c1ccccc1-c1ncc2c(n1)n(Cc1ccc(-c3nc(C(F)(F)F)cn3C3CN(C)C3)cc1)c(=O)n2C` [Compound I-448, 2-(2-isopropylphenyl)-7-methyl-9-(4-(1-(1-methylazetidin-3-yl)-4-(trifluoromethyl)-1H-imidazol-2-yl)benzyl)-7,9-dihydro-8H-purin-8-one], for which the pIC50 is > 7.30.

Turning to `CCC(N)(CC)c1cn(-c2ccc(Cn3c(=O)[nH]c4cnc(-c5ccccc5C(C)C)nc43)cc2)nn1` [Compound I-348, 9-(4-(4-(3-aminopentan-3-yl)-1H-1,2,3-triazol-1-yl)benzyl)-2-(2-isopropylphenyl)-7,9-dihydro-8H-purin-8-one], the pIC50 is < 5.70.

Take `CC(C)c1ccccc1-c1ncc2[nH]c(=O)n(Cc3ccc(-n4cc(CN(C)C)nn4)cc3)c2n1` [Compound I-339, 9-(4-(4-((dimethylamino)methyl)-1H-1,2,3-triazol-1-yl)benzyl)-2-(2-isopropylphenyl)-7,9-dihydro-8H-purin-8-one]: the negative-log IC50 (pIC50) is < 5.70.

In the case of `CCC(C)Oc1ncccc1-c1ncc2[nH]c(=O)n(Cc3ccc(-c4nc(C(F)(F)F)cn4C)cc3)c2n1` (stereo not drawn) [Compound I-417, 2-(2-(sec-butoxy)pyridin-3-yl)-9-(4-(1-methyl-4-(trifluoromethyl)-1H-imidazol-2-yl)benzyl)-7,9-dihydro-8H-purin-8-one], the pIC50 is > 7.30.

With `CC(C)c1ccccc1-c1ncc2[nH]c(=O)n(CC3CN(c4nccc(C(F)(F)F)n4)C3)c2n1` [Compound I-502, 2-(2-Isopropylphenyl)-9-((1-(4-(trifluoromethyl)pyrimidin-2-yl)azetidin-3-yl)methyl)-7,9-dihydro-8H-purin-8-one], the negative logarithm of the IC50 (pIC50) was < 5.70.

With `CC(C)c1ccccc1-c1ncc2[nH]c(=O)n(C3CCC34CN(S(=O)(=O)C(C)C)C4)c2n1` (stereo not drawn) [Compound I-452, 2-(2-isopropylphenyl)-9-(2-(isopropylsulfonyl)-2-azaspiro[3.3]heptan-5-yl)-7,9-dihydro-8H-purin-8-one], the negative-log IC50 (pIC50) was 5.70 to 6.70.

Take `CC(Oc1ncccc1-c1ncc2[nH]c(=O)n(Cc3ccc(-c4nc(C(F)(F)F)cn4C)cc3)c2n1)C(F)(F)F` (stereo not drawn) [Compound I-418, 9-(4-(1-methyl-4-(trifluoromethyl)-1H-imidazol-2-yl)benzyl)-2-(2-((1,1,1-trifluoropropan-2-yl)oxy)pyridin-3-yl)-7,9-dihydro-8H-purin-8-one]: the pIC50 is > 7.30.

As for `CC(C)C(=O)N1CCC(F)(Cn2c(=O)[nH]c3cnc(-c4ccccc4C(C)C)nc32)CC1` [Compound I-475, 9-((4-fluoro-1-isobutyrylpiperidin-4-yl)methyl)-2-(2-isopropylphenyl)-7,9-dihydro-8H-purin-8-one], the negative-log IC50 (pIC50) is < 5.70.

`Cn1cc(C(F)(F)F)nc1-c1ccc(Cn2c(=O)[nH]c3cnc(-c4cccnc4OCC4CCOC4)nc32)cc1` (stereo not drawn) [Compound I-425, 9-(4-(1-methyl-4-(trifluoromethyl)-1H-imidazol-2-yl)benzyl)-2-(2-((tetrahydrofuran-3-yl)methoxy)pyridin-3-yl)-7,9-dihydro-8H-purin-8-one]: the negative-log IC50 (pIC50) was > 7.30.

Regarding `Cc1cc(C(=O)N(C)c2ccc(Cn3c(=O)n(C)c4cnc(-c5ccccc5C(C)C)nc43)cc2)n(C)n1` [Compound I-471, N-(4-((2-(2-isopropylphenyl)-7-methyl-8-oxo-7,8-dihydro-9H-purin-9-yl)methyl)phenyl)-N,1,3-trimethyl-1H-pyrazole-5-carboxamide], the pIC50 is < 5.70.

The compound `COCCNc1ccc(Cn2c(=O)n(C)c3cnc(-c4ccccc4C(C)C)nc32)cc1` [Compound I-489, 2-(2-isopropylphenyl)-9-(4-((2-methoxyethyl)amino)benzyl)-7-methyl-7,9-dihydro-8H-purin-8-one] gave a pIC50 of 6.70 to 7.30.

As for `CN(C)C(=O)CNc1ncccc1-c1ncc2[nH]c(=O)n(Cc3ccc(-c4nc(C(F)(F)F)cn4C)cc3)c2n1` [Compound I-318, N,N-dimethyl-2-((3-(9-(4-(1-methyl-4-(trifluoromethyl)-1H-imidazol-2-yl)benzyl)-8-oxo-8,9-dihydro-7H-purin-2-yl)pyridin-2-yl)amino)acetamide], the pIC50 is 5.70 to 6.70.

As for `Cn1cc(C(F)(F)F)nc1-c1ccc(Cn2c(=O)n(C)c3cnc(-c4ccccc4OC(F)(F)F)nc32)cc1` [Compound I-49, 7-methyl-9-(4-(1-methyl-4-(trifluoromethyl)-1H-imidazol-2-yl)benzyl)-2-(2-(trifluoromethoxy)phenyl)-7,9-dihydro-8H-purin-8-one], the pIC50 is > 7.30.

Regarding `CC(C)c1cccc(F)c1-c1ncc2c(n1)n(Cc1ccc(-n3cccn3)cc1)c(=O)n2C` [Compound I-11, 9-(4-(1H-pyrazol-1-yl)benzyl)-2-(2-fluoro-6-isopropylphenyl)-7-methyl-7,9-dihydro-8H-purin-8-one], the pIC50 is > 7.30.

Consider `Cn1cc(C(F)(F)F)nc1-c1ccc(Cn2c(=O)[nH]c3cnc(-c4ccccc4C4(O)CC4)nc32)cc1` [Compound I-526, 2-(2-(1-Hydroxycyclopropyl)phenyl)-9-(4-(1-methyl-4-(trifluoromethyl)-1H-imidazol-2-yl)benzyl)-7,9-dihydro-8H-purin-8-one], for which the pIC50 is > 7.30.

The compound `CC(C)c1ccccc1-c1ncc2c(n1)n(Cc1ccc(-c3ncn(C)c3CO)cc1)c(=O)n2C` [Compound I-288, 9-(4-(5-(hydroxymethyl)-1-methyl-1H-imidazol-4-yl)benzyl)-2-(2-isopropylphenyl)-7-methyl-7,9-dihydro-8H-purin-8-one] showed a pIC50 of 5.70 to 6.70.

`CC(C)c1ccccc1-c1ncc2c(n1)n(Cc1cccc(OCC3CCCN(C)C3)c1)c(=O)n2C` (stereo not drawn) [Compound I-241, 2-(2-isopropylphenyl)-7-methyl-9-(3-((1-methylpiperidin-3-yl)methoxy)benzyl)-7,9-dihydro-8H-purin-8-one]: the pIC50 is 5.70 to 6.70.

Regarding `Cc1scnc1-c1ccc(Cn2c(=O)n(C)c3cnc(-c4ccccc4C(C)C)nc32)cc1` [Compound I-303, 2-(2-isopropylphenyl)-7-methyl-9-(4-(5-methylthiazol-4-yl)benzyl)-7,9-dihydro-8H-purin-8-one], the pIC50 was > 7.30.

As for `CC(C)c1ccccc1-c1ncc2[nH]c(=O)n(Cc3ccc(-n4cccn4)cc3)c2n1` [Compound I-145, 9-(4-(1H-pyrazol-1-yl)benzyl)-2-(2-isopropylphenyl)-7,9-dihydro-8H-purin-8-one], the pIC50 was > 7.30.

With `CC1CCCN(C(=O)c2ccc(Cn3c(=O)[nH]c4cnc(-c5ccccc5C(C)C)nc43)cc2)C1` (stereo not drawn) [Compound I-399, 2-(2-isopropylphenyl)-9-(4-(3-methylpiperidine-1-carbonyl)benzyl)-7,9-dihydro-8H-purin-8-one], the pIC50 is > 7.30.

For the compound `CC(C)c1ccccc1-c1ncc2c(n1)n(Cc1ccc(NS(=O)(=O)c3ccn(C)n3)cc1)c(=O)n2C` [Compound I-453, N-(4-((2-(2-isopropylphenyl)-7-methyl-8-oxo-7,8-dihydro-9H-purin-9-yl)methyl)phenyl)-1-methyl-1H-pyrazole-3-sulfonamide], the negative logarithm of the IC50 (pIC50) was < 5.70.

`Cc1nc(F)ccc1-c1ncc2c(n1)n(Cc1ccc(-c3nc(C(F)(F)F)cn3C)cc1)c(=O)n2C` [Compound I-66, 2-(6-fluoro-2-methylpyridin-3-yl)-7-methyl-9-(4-(1-methyl-4-(trifluoromethyl)-1H-imidazol-2-yl)benzyl)-7,9-dihydro-8H-purin-8-one]: the negative-log IC50 (pIC50) is 5.70 to 6.70.

As for `CC(C)c1ccccc1-c1ncc2[nH]c(=O)n(Cc3ccc(-c4nccn5ccnc45)cc3)c2n1` [Compound I-291, 9-(4-(imidazo[1,2-a]pyrazin-8-yl)benzyl)-2-(2-isopropylphenyl)-7,9-dihydro-8H-purin-8-one], the negative logarithm of the IC50 (pIC50) was > 7.30.

`CC(C)c1c(F)cccc1-c1ncc2[nH]c(=O)n(Cc3ccc(-c4nccn4C)cc3)c2n1` [Compound I-172, 2-(3-fluoro-2-isopropylphenyl)-9-(4-(1-methyl-1H-imidazol-2-yl)benzyl)-7,9-dihydro-8H-purin-8-one]: the pIC50 is > 7.30.

Regarding `CC(C)c1ccccc1-c1ncc2c(n1)n(Cc1ccc(-n3cccn3)cc1)c(=O)n2C(C)C(=O)O` (stereo not drawn) [Compound I-530, 2-(9-(4-(1H-Pyrazol-1-yl)benzyl)-2-(2-isopropylphenyl)-8-oxo-8,9-dihydro-7H-purin-7-yl)propanoic acid], the pIC50 was 5.70 to 6.70.

Turning to `CC(C)c1ccccc1-c1ncc2c(n1)n(Cc1ccc(-n3cccn3)cc1)c(=O)n2CCN(C)C` [Compound I-107, 9-(4-(1H-pyrazol-1-yl)benzyl)-7-(2-(dimethylamino)ethyl)-2-(2-isopropylphenyl)-7,9-dihydro-8H-purin-8-one], the pIC50 was 5.70 to 6.70.

Compound `CC(C)c1ncccc1-c1ncc2c(n1)n(Cc1cc(F)c(-c3nc(C(F)(F)F)cn3C)c(F)c1)c(=O)n2C` [Compound I-125, 9-(3,5-difluoro-4-(1-methyl-4-(trifluoromethyl)-1H-imidazol-2-yl)benzyl)-2-(2-isopropylpyridin-3-yl)-7-methyl-7,9-dihydro-8H-purin-8-one] had a pIC50 of 6.70 to 7.30.

Consider `CC(C)c1ccccc1-c1ncc2[nH]c(=O)n(Cc3ccc(-n4cncn4)cc3)c2n1` [Compound I-154, 9-(4-(1H-1,2,4-triazol-1-yl)benzyl)-2-(2-isopropylphenyl)-7,9-dihydro-8H-purin-8-one], for which the pIC50 is < 5.70.

The values above are taken from US10189841B2, “Purinones as ubiquitin-specific protease 1 inhibitors” (Forma Therapeutics, Inc., priority 2015, dated 2019).
